These results are taken from patent publication US11612611B2, “Composition and method for treating muscle cramps containing choline alfoscerate as active ingredient” (NANOSTEM CO., LTD., priority 2017, dated 2023).

Structures are written as SMILES.

Data set [1] has as its system patients with muscle cramps. Briefly: Frequency of muscle cramps for a week in patients with muscle cramps, one-month test. Particulars: for Frequency of muscle cramps: per week.
Data set [2] concerns patients with muscle cramps. The data set is described as follows: Pain intensity (11-point PI-NRS) in patients with muscle cramps, one-month test. The class given is in vivo, human. The procedure:
Patients who experience muscle cramps when stabilized for 3 months without taking exercise were selected as subjects.
The “trigger point injection group (control group)” patients were injected with 5 mL of 0.5% lidocaine at the trigger points (4-5 points), once a week.
(§1) The “choline alfoscerate intravenous administration group (Example 1)” patients were intravenously injected slowly with choline alfoscerate (1 g/4 mL) mixed in 100 mL of physiological saline, twice a week.
(§2) The “choline alfoscerate oral administration group (Example 2)” patients were […] with choline alfoscerate (400 mg/capsule), 3 times a day.
The test period was one month. […] The pain intensity was evaluated according to the 11-point pain intensity numerical rating scale (PI-NRS), where 0=no pain, weakest pain=1 and most severe pain=10. 2-point reduction in the pain intensity was considered clinically significant as reported (Farrar 2001, Rowbotham 2001, Hawker 2011). The pain intensity was measured on the first visit and was compared with the pain intensity 2 weeks (T1) and 4 weeks (T2) after the first drug administration.

For data set [3], the system named is patients with nocturnal calf cramps. Particulars: 1-2 mL of 0.25% lidocaine at MTrPs of gastrocnemius muscle; cited from earlier work.
The subject of data set [4] is patients with muscle cramps. The data set is described as follows: Side effects after the treatment in patients with muscle cramps. In kind it is in vivo, human. The procedure:
as §1, §2
Because choline alfoscerate has no effect on the kidney and liver, it is thought that it can be used for people with kidney or liver problems as a therapeutic agent for muscle cramps.

For data set [5] the following is noted: reported since 1969; cited from earlier work.
The mark [6] stands for this setting: trigger point injection (0.5% lidocaine), before drug administration.
Setting [7] is: trigger point injection, 5 mL 0.5% lidocaine once a week, T1 (first 2 weeks).
Setting [8] is: trigger point injection, 5 mL 0.5% lidocaine once a week, T2 (second 2 weeks).
Setting [9] is: trigger point injection, 5 mL 0.5% lidocaine once a week, before drug administration (baseline).
The mark [10] stands for this setting: Example 1, intravenous 1 g twice a week, T1 (first 2 weeks).
The mark [11] stands for this setting: Example 1, intravenous 1 g twice a week, T2 (second 2 weeks).
Setting [12] is: Example 1, intravenous 1 g twice a week, before drug administration (baseline).
[13] abbreviates: Example 2, oral 400 mg capsule 3 times a day, T1 (first 2 weeks).
Setting [14] is: Example 2, oral 400 mg capsule 3 times a day, T2 (second 2 weeks).
[15] abbreviates: Example 2, oral 400 mg capsule 3 times a day, before drug administration (baseline).
[16] abbreviates: intravenous administration group (Example 1), T1.
[17] abbreviates: intravenous administration group (Example 1), T2.
The mark [18] stands for this setting: intravenous administration group (Example 1), before drug administration.
The mark [19] stands for this setting: oral administration group (Example 2), T1.
Setting [20] is: oral administration group (Example 2), T2.
Where [21] appears, read: oral administration group (Example 2), before drug administration.

As to `CCN(CC)CC(=O)Nc1c(C)cccc1C` [Control group (TPI), lidocaine], the “frequency of muscle cramps for a week” value in data set [1] (trigger point injection (0.5% lidocaine), T1) was determined as 2.00 times; in data set [1] (trigger point injection (0.5% lidocaine), T2) it was 1.43 times; in data set [1] (setting [6]) it was 2.84 times. Moreover, the “Frequency of muscle cramps” value was 2.00 ± 0.68 in data set [1] (setting [7]), 1.43 ± 0.53 in data set [1] (setting [8]) and 2.84 ± 0.99 in data set [1] (setting [9]). For the same compound, the pain intensity in data set [2] (trigger point injection (0.5% lidocaine), 2 weeks after first drug administration (T1)) was 3.74 points; in data set [2] (trigger point injection (0.5% lidocaine), 4 weeks after first drug administration (T2)), 2.11 points; in data set [2] (setting [6]) it was 5.34 points; in data set [2] (setting [7]), 3.74 ± 0.91; in data set [2] (setting [8]) it was 2.11 ± 0.76; in data set [2] (setting [9]) it was 5.34 ± 0.87. In addition, in data set [3], the “frequency of cramps for a week as compared to before the administration” value is listed as “decreased significantly”. For the same compound, in data set [3], the “insomnia severity index (ISI) as compared to before the administration” value is “decreased significantly”. The “intensity of pain as compared to before the administration” value in data set [3] is recorded as “decreased significantly”.
Consider `C[N+](C)(C)CCOP(=O)([O-])OC[C@H](O)CO` [choline alfoscerate], for which the “Frequency of muscle cramps” value in data set [1] (setting [10]) came out at 1.56 ± 1.34; in data set [1] (setting [11]), 0.88 ± 1.19; in data set [1] (setting [12]) it was 4.91 ± 2.40; in data set [1] (setting [13]), 2.67 ± 1.07; in data set [1] (setting [14]), 1.05 ± 0.70; in data set [1] (setting [15]), 5.25 ± 1.47. Moreover, the “frequency of muscle cramps for a week as compared to control group” value in data set [1] (intravenous (Example 1), T1, P < 0.05) is listed as “significant decrease”; in data set [1] (oral (Example 2), T1, higher baseline frequency in this group) it was “significant increase”. Besides, the “frequency of muscle cramps as compared to control group” value in data set [1] (intravenous (Example 1), T2) is recorded as “significant decrease”; in data set [1] (oral (Example 2), T2), “significant decrease”. In addition, the “frequency of muscle cramps for a week” value turned out to be 1.56 times in data set [1] (setting [16]); 0.88 time in data set [1] (setting [17]); 4.91 times in data set [1] (setting [18]); 2.67 times in data set [1] (setting [19]); 1.05 times in data set [1] (setting [20]); 5.25 times in data set [1] (setting [21]). The “side effect after the treatment” value in data set [4] (intravenous administration group (Example 1)) and in data set [4] (oral administration group (Example 2)) was “no side effect” in each case. In addition, the pain intensity in data set [2] (setting [10]) is on record as 2.56 ± 1.49; in data set [2] (setting [11]), 1.32 ± 0.91; in data set [2] (setting [12]) it was 6.50 ± 1.26; in data set [2] (setting [13]) it was 3.94 ± 1.17; in data set [2] (setting [14]), 1.88 ± 0.92; in data set [2] (setting [15]) it was 6.31 ± +0.94. The pain intensity in data set [2] (setting [16]) was 2.56 points; in data set [2] (setting [17]) it was 1.32 points; in data set [2] (setting [18]) it was 6.50 points; in data set [2] (setting [19]) it was 3.94 points; in data set [2] (setting [20]), 1.88 points; in data set [2] (setting [21]), 6.31 points. Also, the “pain intensity as compared to trigger point injection group (control group)” value in data set [2] (intravenous (Example 1), at both T1 and T2, P < 0.05) is reported as “significant decrease”.
On to `C=C[C@H]1C[N@@]2CC[C@H]1C[C@H]2[C@H](O)c1ccnc2ccc(OC)cc12` [quinine], for which, in data set [5], the death reported was 93 cases and the “severe side effects reported” value is given as 665 cases.
